≈ marks a conversion by molar mass, not a printed value.
Legend:
Staphylococcus aureus = assay: Antibacterial activity against Staphylococcus aureus by microplate alamar blue assay; type: functional
Enterococcus faecium = assay: Antibacterial activity against Enterococcus faecium by microplate alamar blue assay; type: functional
Acinetobacter baumannii = assay: Antibacterial activity against Acinetobacter baumannii by microplate alamar blue assay; type: functional
Pseudomonas aeruginosa = assay: Antibacterial activity against Pseudomonas aeruginosa by microplate alamar blue assay; type: functional
Klebsiella pneumoniae = assay: Antibacterial activity against Klebsiella pneumoniae by microplate alamar blue assay; type: functional
Klebsiella aerogenes = assay: Antibacterial activity against Enterobacter aerogenes by microplate alamar blue assay; type: functional
[1] = system: Mycobacterium tuberculosis; assay: Bactericidal activity against Mycobacterium tuberculosis H37Rv measured up to 7 days by luminescence assay; type: functional; conditions: time <= 7 day
[2] = system: Mycobacterium tuberculosis; assay: Antitubercular activity against Mycobacterium tuberculosis KMA 4244 by microplate alamar blue assay; type: functional
Mycobacterium marinum = assay: Antibacterial activity against Mycobacterium marinum ATCC 927 incubated for 5 days by microplate alamar blue assay; type: functional; conditions: ATCC 927, 120 h, time 5 day
Mycobacterium kansasii = assay: Antibacterial activity against Mycobacterium kansasii ATCC 12478 incubated for 7 days by microplate alamar blue assay; type: functional; conditions: ATCC 12478, 168 h, time 7 day
[3] = system: Mycobacterium tuberculosis; assay: Antitubercular activity against Mycobacterium tuberculosis H37Rv ATCC 27294 by microplate alamar blue assay; type: functional
Mycobacterium avium = assay: Antibacterial activity against Mycobacterium avium ATCC 15769 incubated for 6 days by microplate alamar blue assay; type: functional; conditions: ATCC 15769, 144 h, time 6 day
[4] = system: Mycobacterium tuberculosis; assay: Antitubercular activity against Mycobacterium tuberculosis KMA 5282 by microplate alamar blue assay; type: functional
[5] = system: Mycobacterium tuberculosis; assay: Antitubercular activity against Mycobacterium tuberculosis KMA 1354 by microplate alamar blue assay; type: functional
[6] = system: Mycobacteroides abscessus; assay: Antibacterial activity against Mycobacterium abscessus ATCC 19977 incubated for 3 days by microplate alamar blue assay; type: functional; conditions: ATCC 19977, 72 h, time 3 day
[7] = system: Mycobacterium tuberculosis; assay: Antitubercular activity against Mycobacterium tuberculosis KMA 3899 by microplate alamar blue assay; type: functional
[8] = system: Mycobacterium tuberculosis; assay: Antitubercular activity against Mycobacterium tuberculosis H37Rv by microplate alamar blue assay; type: functional
Mycobacteroides chelonae = assay: Antibacterial activity against Mycobacteroides chelonae ATCC 35752 incubated for 3 days by microplate alamar blue assay; type: functional; conditions: ATCC 35752, 72 h, time 3 day
[9] = system: Mycobacterium tuberculosis; assay: Antitubercular activity against Mycobacterium tuberculosis KMA 4439 by microplate alamar blue assay; type: functional
[10] = Cytotoxicity against African green monkey Vero cells measured after 3 days by resazurin dye based fluorescence assay; type: toxicity, cell-based; conditions: African green monkey (Chlorocebus sabaeus)
[11] = system: Mycobacterium tuberculosis; assay: Antitubercular activity against Mycobacterium tuberculosis H37Rv assessed as post antibiotic affect by measuring time required for 1 log10 increase in RLU at 0.5 uM measured daily for up to 14 days by luminescence assay; type: functional; conditions: time <= 14 day
[12] = system: Mycobacterium tuberculosis; assay: Antitubercular activity against Mycobacterium tuberculosis H37Rv assessed as post antibiotic affect by measuring time required for 1 log10 increase in RLU at 0.05 uM measured daily for up to 14 days by luminescence assay; type: functional; conditions: time <= 14 day
[13] = system: Mycobacterium tuberculosis; assay: Antitubercular activity against Mycobacterium tuberculosis H37Rv assessed as post antibiotic affect by measuring time required for 1 log10 increase in RLU at 5 uM measured daily for up to 14 days by luminescence assay; type: functional; conditions: time <= 14 day

SMILES | MBC99 [1] | MIC90 [2] | MIC90 (Mycobacterium marinum) | MIC90 (Mycobacterium kansasii) | MIC90 [3] | MIC90 (Mycobacterium avium) | MIC90 [4] | MIC90 [5] | MIC90 [6] | MIC90 [7] | MIC90 [8] | MIC90 (Mycobacteroides chelonae) | MIC90 [9] | IC50 at 3 days [10] | also measured
C[C@H]1c2cccc(O)c2C(=O)C2=C(O)[C@]3(O)C(=O)C(C(N)=O)=C(O)[C@@H](N(C)C)[C@@H]3[C@@H](O)[C@@H]21 [DOXYCYCLINE ANHYDROUS] |  |  |  |  |  |  |  |  |  |  |  |  |  |  | MIC90 (Staphylococcus aureus): < 0.195 µM; MIC90 (Enterococcus faecium): < 0.195 µM; MIC90 (Acinetobacter baumannii): < 0.195 µM; MIC90 (Pseudomonas aeruginosa): 5.49 µM (≈ 2.44 µg/mL); MIC90 (Klebsiella pneumoniae): 0.34 µM (≈ 0.151 µg/mL); MIC90 (Klebsiella aerogenes): 2.84 µM (≈ 1.26 µg/mL)
NNC(=O)c1ccncc1 [ISONIAZID] | 250 µg/mL (≈ 1820 µM) | 1.55 µM (≈ 0.213 µg/mL) | > 8 µM | > 8 µM | 0.46 µM (≈ 0.0631 µg/mL) | > 8 µM | 0.98 µM (≈ 0.134 µg/mL) | 0.46 µM (≈ 0.0631 µg/mL) | > 8 µM | 0.43 µM (≈ 0.059 µg/mL) | 0.31 µM (≈ 0.0425 µg/mL) | > 8 µM | 0.41 µM (≈ 0.0562 µg/mL) |  | 
CC(=O)NC[C@H]1CN(c2ccc(N3CCOCC3)c(F)c2)C(=O)O1 [LINEZOLID] | 7310 µg/mL (≈ 21700 µM) | 1 µM (≈ 0.337 µg/mL) | 17.4 µM (≈ 5.88 µg/mL) | 85.6 µM (≈ 28.9 µg/mL) | 0.93 µM (≈ 0.314 µg/mL) | 93.5 µM (≈ 31.5 µg/mL) | 1.89 µM (≈ 0.638 µg/mL) | 0.91 µM (≈ 0.307 µg/mL) | 88 µM (≈ 29.7 µg/mL) | 0.48 µM (≈ 0.162 µg/mL) | 0.97 µM (≈ 0.327 µg/mL) | 5.13 µM (≈ 1.73 µg/mL) | 0.95 µM (≈ 0.32 µg/mL) |  | 
COc1c(N2C[C@@H]3CCCN[C@@H]3C2)c(F)cc2c(=O)c(C(=O)O)cn(C3CC3)c12 [MOXIFLOXACIN] | 470 µg/mL (≈ 1170 µM) | 0.42 µM (≈ 0.169 µg/mL) |  |  | 0.19 µM (≈ 0.0763 µg/mL) |  | 0.48 µM (≈ 0.193 µg/mL) | 0.12 µM (≈ 0.0482 µg/mL) |  | 0.11 µM (≈ 0.0442 µg/mL) | 0.29 µM (≈ 0.116 µg/mL) |  | 0.33 µM (≈ 0.132 µg/mL) | > 100 µM | MIC90 (Staphylococcus aureus): < 0.195 µM; MIC90 (Enterococcus faecium): 1.58 µM (≈ 0.634 µg/mL); MIC90 (Acinetobacter baumannii): < 0.195 µM; MIC90 (Pseudomonas aeruginosa): 0.75 µM (≈ 0.301 µg/mL); MIC90 (Klebsiella pneumoniae): < 0.195 µM; MIC90 (Klebsiella aerogenes): < 0.195 µM
O=[N+]([O-])c1cn2c(n1)OC[C@@H](OCc1ccc(OC(F)(F)F)cc1)C2 [PRETOMANID] | 480 µg/mL (≈ 1340 µM) |  |  |  | 0.1 µM (≈ 0.0359 µg/mL) |  |  |  |  |  |  |  |  |  | 
NC(=O)c1cnccn1 [PYRAZINAMIDE] |  | 1.51 µM (≈ 0.186 µg/mL) |  |  |  |  | 0.92 µM (≈ 0.113 µg/mL) | 0.25 µM (≈ 0.0308 µg/mL) |  | 0.24 µM (≈ 0.0295 µg/mL) | 0.43 µM (≈ 0.0529 µg/mL) |  | 0.49 µM (≈ 0.0603 µg/mL) |  | 
CO[C@H]1/C=C/O[C@@]2(C)Oc3c(C)c(O)c4c(O)c(c(/C=N/N5CCN(C)CC5)c(O)c4c3C2=O)NC(=O)/C(C)=C\C=C\[C@H](C)[C@H](O)[C@@H](C)[C@@H](O)[C@@H](C)[C@H](OC(C)=O)[C@@H]1C [RIFAMPIN] | 70 µg/mL (≈ 85.1 µM) | 0.11 µM (≈ 0.0905 µg/mL) | 2.23 µM (≈ 1.84 µg/mL) | 2.36 µM (≈ 1.94 µg/mL) | 0.02 µM (≈ 0.0165 µg/mL) | 3.05 µM (≈ 2.51 µg/mL) | 0.14 µM (≈ 0.115 µg/mL) | 0.05 µM (≈ 0.0411 µg/mL) | > 10 µM | 0.04 µM (≈ 0.0329 µg/mL) | 0.06 µM (≈ 0.0494 µg/mL) | 6.93 µM (≈ 5.7 µg/mL) | 0.22 µM (≈ 0.181 µg/mL) | > 95.7 µM | PAE [11]: ~60 h; PAE [12]: ~24 h; PAE [13]: ~60 h
Nc1c2c(nc3ccccc13)CCCC2 [TACRINE] |  |  |  |  |  |  |  |  |  |  |  |  |  | 90.7 µM | 
CC/C(=C(\c1ccccc1)c1ccc(OCCN(C)C)cc1)c1ccccc1 [TAMOXIFEN] |  |  |  |  |  |  |  |  |  |  |  |  |  | 13.9 µM | 

Reference: ChEMBL document CHEMBL6182867, “Discovery of ultra short β-peptoids with selective activity against drug-resistant Mycobacterium tuberculosis” (Eur J Med Chem, 2025)
